# Marks after values point to notes of the source that are not given here.
# Key:
# Ex vivo PT clotting time = assay type: in vivo, C57BL/6 mice; conditions: mice, i.v.; for PT: 1 h after administration
# Experimental: (§1) The aPTT and PT were determined using a Thrombotimer (Behnk Elektronik, Norderstedt, Germany) in accordance with the manufacturer’s instructions and as previously described. Briefly, citrated normal human plasma (90 μL) was mixed with 10 μL JJ1 and incubated for 1 min at 37 °C. Subsequently, the aPTT assay reagent (100 μL) was added, the plasma sample was incubated for an additional 1 min at 37 °C, 20 mM CaCl2 (100 μL) was added, and the clotting times were recorded. For the PT assays, citrated normal human plasma (90 μL) was mixed with 10 μL JJ1 stock solution and was incubated for 1 min at 37 °C. The PT assay reagent (200 μL), which had been pre-incubated for 10 min at 37 °C, was subsequently added and the clotting time was recorded. The PT results were expressed in seconds and as International Normalized Ratios (INR): INR = (PT sample/PT control)^ISI, where ISI = international sensitivity index. The aPTT results were also expressed in seconds. All experimental protocols (KNUH 2012-01-010) were approved by the Institutional Review Board of Kyungpook National University Hospitals (Daegu, Republic of Korea).
# Male C57BL/6 mice were fasted overnight. Each compound was dissolved in 0.5% DMSO and administered by i.v. injection. One hour after administration, arterial blood samples (0.1 mL) were collected in 3.8% sodium citrate (1:10, v/v) for the ex vivo aPTT and PT determination. The clotting times were determined as described above.
# [1] = Pharmacokinetics after i.v. injection; assay type: in vivo; conditions: mouse, plasma, iv, male C57BL/6 mice, 2 mg/kg, fasting
# Experimental: The penile veins of male C57BL/6 mice were injected with 2 mg/kg JJ1. Approximately 50 μL of blood was obtained from the tail vein immediately before and at 5, 15, 30, 60, and 180 min after injection; 80 μL acetonitrile and internal standard solution (reserpine) were then added to these samples, and plasma samples (10 μL) were prepared by centrifugation of the blood at 13,000 rpm for 15 min at 4 °C. An aliquot (2 μL) of the supernatant was then injected into an HPLC column. The pharmacokinetic parameters were determined using the standard non-compartmental method. The area under the curve for serum was calculated using the log linear trapezoidal method on WinNonlin (version 2.0; Scientific Consulting, KY, USA). The samples were analyzed using an Accela^TM LC system coupled to a TSQ Vantage triple quadrupole mass spectrometer (Thermo Fisher Scientific Inc., USA) equipped with a HESI-II Spray source. For the LC analysis, an ACE® 5C18, 3 μm (2.1 × 50 mm) column was used. The mobile phases were (A) LC-grade® water containing 0.1% formic acid, and (B) LC grade acetonitrile containing 0.1% formic acid (B). This initial composition was increased to 95% solvent (B) for 3 minutes. The gradient program for HPLC used a flow rate of […]. […]
# [2] = FeCl3-induced arterial thrombosis model; assay type: in vivo, C57BL/6 mice; conditions: mice, i.v.
# Experimental: The FeCl3-induced thrombosis mouse model was established as previously described. Male C57BL/6 mice were fasted overnight and were administered JJ1 in DMSO by intravenous injection. Then, mice were anesthetized using 3% isoflurane (Forane®, Choongwae Pharma. Corp., Seoul, Korea) and injected intravenously with 0.1 mL 0.1% rhodamine 6 G (Sigma). A testicular artery (200 μm in diameter) was carefully exposed and a cotton thread (200 μm in diameter) saturated with 0.25 mol/L FeCl3 was applied to the adventitial surface. After 5 min, the cotton thread was removed, and the wound was flushed with saline solution. Thrombus formation was monitored at 35 °C by 3-dimensional imaging as previously described. The size and time of thrombus formation were monitored, and the findings were scored as follows: no thrombus, 0; small thrombus (50 μm × 75 μm), 1; medium-sized thrombus (100 μm × 150 μm), 2; large thrombus (200 μm × 300 μm), 3. The time from FeCl3-mediated endothelial injury to occlusion of the testicular artery by a large thrombus was measured.
# tPA = tPA (Homo sapiens, UniProt P00750); assay: Chromogenic substrate assay, Ki (Dixon); assay type: biochemical
# Sequence of tPA (P00750 36-562): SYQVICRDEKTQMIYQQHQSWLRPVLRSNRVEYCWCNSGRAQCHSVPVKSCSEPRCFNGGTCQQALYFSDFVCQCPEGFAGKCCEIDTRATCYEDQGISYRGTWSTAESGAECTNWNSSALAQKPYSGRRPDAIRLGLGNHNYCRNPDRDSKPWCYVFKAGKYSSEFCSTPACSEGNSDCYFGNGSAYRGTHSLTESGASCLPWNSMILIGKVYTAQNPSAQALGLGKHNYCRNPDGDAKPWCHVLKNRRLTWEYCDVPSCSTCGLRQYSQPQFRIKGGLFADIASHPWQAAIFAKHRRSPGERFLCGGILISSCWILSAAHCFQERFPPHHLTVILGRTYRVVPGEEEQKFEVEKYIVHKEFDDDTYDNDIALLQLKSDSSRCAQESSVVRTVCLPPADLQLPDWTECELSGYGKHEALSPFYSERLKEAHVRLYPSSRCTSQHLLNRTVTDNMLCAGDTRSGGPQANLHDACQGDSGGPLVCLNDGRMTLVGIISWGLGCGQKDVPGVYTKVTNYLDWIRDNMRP
# Experimental: (§2) Chromogenic substrate assays were performed using a Labsystems IEMS (Cergy Pontoise, France) microtiter plate reader. K i values were calculated according to the method of Dixon[65]. In each assay, the compound was tested at a minimum of seven concentrations, in duplicate, to obtain an inhibition curve. The following general procedures were adopted for each assay. In a 96-well microtiter plate, 25 μL of inhibitor solution or buffer was added to 50 μL of substrate. The enzyme solution (25 μL) was added just before the plate was placed in the microtiter plate reader for 1 h at 37 °C. The hydrolysis of the substrate yields p-nitroaniline, which was continuously monitored spectrophotometrically at 405 nm. The maximal initial reaction rates were calculated and expressed as millioptical density per minute.
# human plasma [3] = assay: In vitro aPTT clotting time; assay type: biochemical; conditions: for aPTT: in vitro
# Experimental: as §1
# human plasma [4] = assay: In vitro PT clotting time; assay type: biochemical; conditions: at the maximum antithrombotic dose
# human α-thrombin = molecular target: T1, human α-thrombin (Homo sapiens, UniProt P00734); assay: Chromogenic substrate assay, Ki (Dixon); assay type: biochemical
# T1 construct: purchased Haematologic Technologies (Essex Junction, VT)
# Experimental: as §2
smiles,measurement,setting,value
c1ccc2c(NC3CCCC3)nc(Nc3ccncc3)nc2c1 [JJ1],PT (INR),Ex vivo PT clotting time; 0.31 μg/mouse,1.08 INR
same,PT,Ex vivo PT clotting time; 0.31 μg/mouse,12.4 ± 0.5 s
same,PT (INR),Ex vivo PT clotting time; 0.61 μg/mouse,2.37 INR
same,PT,Ex vivo PT clotting time; 0.61 μg/mouse,17.2 ± 1.4 s
same,PT (INR),Ex vivo PT clotting time; 1.23 μg/mouse,4.42* INR
same,PT,Ex vivo PT clotting time; 1.23 μg/mouse,22.3 ± 0.6 s
same,PT (INR),Ex vivo PT clotting time; 3.06 μg/mouse,6.88* INR
same,PT,Ex vivo PT clotting time; 3.06 μg/mouse,26.8 ± 0.4 s
same,AUC,[1],6100 ng·h/mL
same,half-life,[1],3.1 h
same,Growth of thrombi (time to large thrombus formation),[2]; FeCl3-induced thrombosis,significantly slowed the growth of thrombi
same,Thrombus size at 60 min after FeCl3-induced endothelial injury,[2],reduced FeCl3-induced thrombus formation
same,Selectivity ratio,tPA; K i tPA/K i α-thrombin,">10,000"
same,Ki,tPA; tPA,> 250000 nM
same,"Concentration that doubled the clotting time, aPTT assay",human plasma [3],1.66 µM
same,aPTT,human plasma [3]; 0.05 μM,23.5 ± 0.4 s
same,aPTT,human plasma [3]; 0.1 μM,23.3 ± 0.2 s
same,aPTT,human plasma [3]; 0.2 μM,24.2 ± 0.4 s
same,aPTT,human plasma [3]; 0.5 μM,32.4 ± 0.6 s
same,aPTT,human plasma [3]; 1.0 μM,41.3 ± 0.4 s
same,aPTT,human plasma [3]; 2.0 μM,50.4 ± 0.6 s
same,aPTT,human plasma [3]; 5.0 μM,51.6 ± 0.4 s
same,Prolongation of PT,human plasma [4],2.22 fold
same,Selectivity ratio,human α-thrombin; K i enzyme/K i α-thrombin,1
same,Ki,human α-thrombin; mean ± SD (n = 5),19 ± 0.5 nM
